This note sets out measurements from patent US8722727B2, “Antifungal agents” (Seynix, Inc., priority 2008, dated 2014).

In this test the target is T1, glucan synthase (GS) (Candida albicans, UniProt O13428).
T1 construct: Extraction of GS activity from membranes was performed at a protein concentration of 5 mg/mL in extraction buffer; endogenous in cells; host or cells: Candida albicans MY1055 (membrane fraction, detergent extraction, product entrapment)
T1 sequence (O13428 1-1897): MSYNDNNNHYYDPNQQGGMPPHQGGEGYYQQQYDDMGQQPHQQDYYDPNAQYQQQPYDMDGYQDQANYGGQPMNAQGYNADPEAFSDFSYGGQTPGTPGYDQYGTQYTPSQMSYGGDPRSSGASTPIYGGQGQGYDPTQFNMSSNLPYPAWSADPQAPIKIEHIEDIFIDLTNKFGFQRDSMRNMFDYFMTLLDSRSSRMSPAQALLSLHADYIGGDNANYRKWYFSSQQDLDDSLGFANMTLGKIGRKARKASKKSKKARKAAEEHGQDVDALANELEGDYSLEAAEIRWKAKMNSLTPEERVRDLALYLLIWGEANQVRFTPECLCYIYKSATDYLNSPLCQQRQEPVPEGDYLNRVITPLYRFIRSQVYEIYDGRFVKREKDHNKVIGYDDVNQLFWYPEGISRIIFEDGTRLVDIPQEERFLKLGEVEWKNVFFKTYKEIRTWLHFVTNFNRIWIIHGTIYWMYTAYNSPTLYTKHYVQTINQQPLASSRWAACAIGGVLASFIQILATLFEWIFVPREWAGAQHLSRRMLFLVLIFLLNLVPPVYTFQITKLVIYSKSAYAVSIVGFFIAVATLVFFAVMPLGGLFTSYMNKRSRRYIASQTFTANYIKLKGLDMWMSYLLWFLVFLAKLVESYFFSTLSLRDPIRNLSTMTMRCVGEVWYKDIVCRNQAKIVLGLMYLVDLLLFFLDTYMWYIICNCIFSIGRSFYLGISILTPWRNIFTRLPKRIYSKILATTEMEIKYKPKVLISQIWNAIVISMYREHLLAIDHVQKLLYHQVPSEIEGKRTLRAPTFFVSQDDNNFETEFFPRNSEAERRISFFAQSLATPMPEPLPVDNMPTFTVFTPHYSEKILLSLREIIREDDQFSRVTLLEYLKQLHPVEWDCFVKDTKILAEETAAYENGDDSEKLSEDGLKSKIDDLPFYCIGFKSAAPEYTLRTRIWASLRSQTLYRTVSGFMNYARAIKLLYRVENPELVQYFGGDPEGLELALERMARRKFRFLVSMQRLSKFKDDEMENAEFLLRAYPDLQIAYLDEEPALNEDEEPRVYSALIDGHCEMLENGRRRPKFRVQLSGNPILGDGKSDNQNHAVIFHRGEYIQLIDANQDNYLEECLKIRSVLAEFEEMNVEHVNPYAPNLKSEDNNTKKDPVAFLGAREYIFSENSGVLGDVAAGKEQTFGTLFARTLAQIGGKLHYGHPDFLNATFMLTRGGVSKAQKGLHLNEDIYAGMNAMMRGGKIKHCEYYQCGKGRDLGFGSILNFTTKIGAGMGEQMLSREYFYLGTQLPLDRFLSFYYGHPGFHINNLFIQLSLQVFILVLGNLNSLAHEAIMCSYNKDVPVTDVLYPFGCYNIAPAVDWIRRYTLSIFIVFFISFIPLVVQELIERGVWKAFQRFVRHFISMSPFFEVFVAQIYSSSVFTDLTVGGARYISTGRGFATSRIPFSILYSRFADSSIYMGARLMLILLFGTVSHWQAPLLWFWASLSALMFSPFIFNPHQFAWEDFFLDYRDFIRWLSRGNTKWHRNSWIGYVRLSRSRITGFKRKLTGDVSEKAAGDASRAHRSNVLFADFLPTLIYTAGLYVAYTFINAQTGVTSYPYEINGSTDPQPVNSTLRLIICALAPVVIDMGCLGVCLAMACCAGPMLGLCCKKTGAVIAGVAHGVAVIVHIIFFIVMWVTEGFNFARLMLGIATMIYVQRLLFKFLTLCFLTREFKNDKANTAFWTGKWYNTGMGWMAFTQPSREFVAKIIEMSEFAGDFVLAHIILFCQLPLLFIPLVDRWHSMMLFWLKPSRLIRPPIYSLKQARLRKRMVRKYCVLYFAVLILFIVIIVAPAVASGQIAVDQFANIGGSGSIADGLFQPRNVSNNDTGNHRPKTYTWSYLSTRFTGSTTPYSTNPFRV
T1 sequence (O42825 1-195 partner limits assumed): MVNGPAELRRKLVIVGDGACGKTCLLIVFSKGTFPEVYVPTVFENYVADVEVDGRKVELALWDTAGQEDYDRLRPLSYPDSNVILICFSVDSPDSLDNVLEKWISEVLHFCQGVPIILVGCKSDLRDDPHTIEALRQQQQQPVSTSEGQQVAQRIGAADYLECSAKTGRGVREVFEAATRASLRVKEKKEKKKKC
Briefly: Glucan synthase inhibition (polymerization assay, 96-well). The conditions noted are these: glucan synthase prepared from Candida albicans MY1055; 60 min incubation at 22° C.; read-out: Candida Albicans GS IC50 (ng/mL) (converted). It counts as biochemical. The protocol:
The in vitro evaluation of glucan synthase inhibitory activity of compounds was measured in a polymerization assay in 96-well format. Each well contained 100 μL of ^3H-UDPG at 0.5 mM (6000 to 8000 dpm/nmol), 50 mM HEPES pH 7.5 (Sigma), 10% w/v glycerol (Sigma), 1.5 mg/mL bovine serum albumin (Sigma A 9647. Lot 44H0190), 25 mM KF (Fisher), 1 mM EDTA (Gibco ULTRAPURE), 25 μM GTP-γ-S, enzyme sufficient to give 3 to 6 nmoles incorporation during the 60 min incubation at 22° C., and test compound added from wells in 3-fold serial dilutions in 100% DMSO (1 μL/well). The reaction was stopped by the addition of 100 μL of 20% trichloroacetic acid. Plates were chilled for a minimum of 10 min, and precipitated glucan collected by filtration on GF/C plates (Packard UNIFILTER®-96), washed with 5 cycles of water (about 1 mL/well each cycle) using a Packard FILTERMATE HARVESTER. 40 μL/well scintillation fluid (Packard ULTIMA GOLD TM-XR) was added and the sealed plates counted in a WALLAC BETA counter in top-counting mode at an efficiency of approximately 40%.
Stock solutions were stored at 10 mg/mL in DMSO at −20° C. For each new enzyme preparation, the initial titration performed started at 1 mg/mL, which was prepared by making a 10-fold dilution in DMSO (5 μL to 50 μL). 40 μL of this stock was placed in column 12 of a round-bottomed 96-well microtiter plate. 40 μL DMSO was added to columns 1 to 11 in the same row and ten 3-fold serial dilutions performed, by transferring 20 μL from column 12 to column 11 etc., with 4 mixings before each transfer. No test compound was transferred to from column 2 to column 1. Duplicate aliquots of 1 μL of all 12 dilutions were then transferred to the side walls of a 96-well Bioblock 1.1 mL plate (Fisher brand) to create two rows. Graphs of the primary data were created in PRISM software (the average of two determinations) using PRISM's curve fitting program (sigmoidal dose response non-linear regression). The amount of compound required to inhibit glucan synthase activity by 50% in this assay (IC50-ng/mL) was calculated.
Routine analysis was performed with glucan synthase (GS) prepared from Candida albicans MY1055 by the following procedure: MY1055 was grown in 10 liters YPD medium (10 g yeast extract, 20 g tryptone, 20 g glucose per liter) with vigorous shaking at 30° C., to early stationary phase. Cells were harvested by centrifugation, the pellet was washed and frozen at −70° C. until breakage. Thawed pellets were shaken with an equal volume of breakage buffer (50 mM HEPES pH 7.4, 10% glycerol, 1 mM EDTA, 1 mM PMSF, 1 mM DTT) and 4 times their weight of 0.5 mm acid washed glass beads for 2 hours at 4° C. Extent of breakage was assessed visually at 40× magnification. After low speed centrifugation to remove cell debris, the supernatant was centrifuged at 100,000×g for 60 min. to separate membranes plus ribosomes from cytoplasmic components. Membranes were further washed two additional times with breakage buffer using the same centrifugation conditions and finally suspended in breakage buffer at 25 to 30 mg/mL protein (Biorad) for storage at −70° C. Extraction of GS activity from membranes was performed at a protein concentration of 5 mg/mL in extraction buffer (50 mM NaPO4 pH 7.5, 0.1 M KCl, 0.1M Na citrate, 20% glycerol, 5 μM GTP-γ-S, 1 mM DTT, 1 mM PMSF, 3 μg/mL pepstatin) plus 0.25% W1 by gentle mixing at 4° C. for 60 min, followed by centrifugation at 100,000×g for 60 min. After centrifugation, clear supernatant was removed from a pellet consisting of a hard layer usually with small amounts of gelatinous unextracted membranes above it.
Trapping was initiated immediately by 5-fold dilution in trapping buffer (50 mM HEPES pH 7.5, 10 mM KF, 1 mM EDTA, 2 mg/mL BSA) plus 2.5 mM UDPG and 10 μM GTP-γ-S. After incubation at 25° C. for 60 to 90 minutes, glucan was harvested by low speed centrifugation (3,000×g, 10 min). […]
For `CC(C)[C@H](N)CO[C@H]1[C@H](n2nnc(N)n2)C[C@@]23COC[C@]1(C)[C@@H]2CC[C@H]1C3=CC[C@@]2(C)[C@H](C(=O)O)[C@@](C)([C@H](C)C(C)C)CC[C@]12C` [Example 93, (1S,4aR,6aS,7R,8R,10aR,10bR,12aR,14R,15R)-14-(5-amino-2H-tetrazol-2-yl)-15-[[(2S)-2-amino-3-methylbutyl]oxy]-8-[(1R)-1,2-dimethylpropyl]-1,6,6a,7,8,9,10,10a,10b,11,12,12a-dodecahydro-1,6a,8,10a-tetramethyl-4H-1,4a-propano-2H-phenanthro[1,2-c]pyran-7-carboxylic acid], the IC50 was 9.36 nM.

Regarding `CC(C)C(C(C)O[C@H]1[C@H](n2nnc(N)n2)C[C@@]23COC[C@]1(C)[C@@H]2CC[C@H]1C3=CC[C@@]2(C)[C@H](C(=O)O)[C@@](C)([C@H](C)C(C)C)CC[C@]12C)N(C)C` (stereo partly drawn) [Example 49, (1S,4aR,6aS,7R,8R,10aR,10bR,12aR,14R,15R)-14-(5-amino-2H-tetrazol-2-yl)-15-[2-(dimethylamino)-1,3-dimethylbutoxy]-8-[(1R)-1,2-dimethylpropyl]-1,6,6a,7,8,9,10,10a,10b,11,12,12a-dodecahydro-1,6a,8,10a-tetramethyl-4H-1,4a-propano-2H-phenanthro[1,2-c]pyran-7-carboxylic acid], the IC50 was 26.4 nM.

In the case of `CC(C)[C@@H](C)[C@@]1(C)CC[C@]2(C)[C@H]3CC[C@@H]4[C@@]5(COC[C@@]4(C)[C@@H](OC[C@](C)(C(C)C)N(C)C)[C@H](n4nnc(N)n4)C5)C3=CC(=O)[C@@]2(C)[C@@H]1C(=O)O` (single isomer, unassigned) [Example 15A], the IC50 is 64.6 nM.

Take `CC(C)[C@@H](C)[C@@]1(C)CC[C@]2(C)[C@H]3CC[C@@H]4[C@@]5(COC[C@@]4(C)[C@@H](OC[C@](C)(NCCCO)C(C)C)[C@H](n4nnc(N)n4)C5)C3=CC[C@@]2(C)[C@@H]1C(=O)O` [Example 13, (1S,4aR,6aS,7R,8R,10aR,10bR,12aR,14R,15R)-14-(5-amino-2H-tetrazol-2-yl)-8-[(1R)-1,2-dimethylpropyl]-15-[[(2R)-2-[(3-hydroxypropyl)amino]-2,3-dimethylbutyl]oxy]-1,6,6a,7,8,9,10,10a,10b,11,12,12a-dodecahydro-1,6a,8,10a-tetramethyl-4H-1,4a-propano-2H-phenanthro[1,2-c]pyran-7-carboxylic acid]: the IC50 is 2.8 nM.

On to `CCCCCC(C)(CO[C@H]1[C@H](n2nnc(N)n2)C[C@@]23COC[C@]1(C)[C@@H]2CC[C@H]1C3=CC[C@@]2(C)[C@H](C(=O)O)[C@@](C)([C@H](C)C(C)C)CC[C@]12C)NCCC` (stereo partly drawn) [Example 120, (1S,4aR,6aS,7R,8R,10aR,10bR,12aR,14R,15R)-14-(5-amino-2H-tetrazol-2-yl)-8-[(1R)-1,2-dimethylpropyl]-15-[[2-methyl-2-(propylamino)heptyl]oxy]-1,6,6a,7,8,9,10,10a,10b,11,12,12a-dodecahydro-1,6a,8,10a-tetramethyl-4H-1,4a-propano-2H-phenanthro[1,2-c]pyran-7-carboxylic acid], for which the IC50 was 60.7 nM.

Take `CC(C)[C@@H](C)[C@@]1(C)CC[C@]2(C)[C@H]3CC[C@@H]4[C@@]5(COC[C@@]4(C)[C@@H](OCCC4(N)CCCC4)[C@H](n4nnc(N)n4)C5)C3=CC[C@@]2(C)[C@@H]1C(=O)O` [Example 25, (1S,4aR,6aS,7R,8R,10aR,10bR,12aR,14R,15R)-15-[2-(1-aminocyclopentyl)ethoxy]-14-(5-amino-2H-tetrazol-2-yl)-8-[(1R)-1,2-dimethylpropyl]-1,6,6a,7,8,9,10,10a,10b,11,12,12a-dodecahydro-1,6a,8,10a-tetramethyl-4H-1,4a-propano-2H-phenanthro[1,2-c]pyran-7-carboxylic acid]: the IC50 is 40.5 nM.

Consider `CC(C)[C@@H](C)[C@@]1(C)CC[C@]2(C)[C@H]3CC[C@@H]4[C@@]5(COC[C@@]4(C)[C@@H](OC[C@](C)(NCc4ccccc4)C(C)C)[C@H](n4nnc(N)n4)C5)C3=CC[C@@]2(C)[C@@H]1C(=O)O` [Example 61, (1S,4aR,6aS,7R,8R,10aR,10bR,12aR,14R,15R)-14-(5-amino-2H-tetrazol-2-yl)-15-[[(2R)-2,3-dimethyl-2-[(phenylmethyl)amino]butyl]oxy]-8-[(1R)-1,2-dimethylpropyl]-1,6,6a,7,8,9,10,10a,10b,11,12,12a-dodecahydro-1,6a,8,10a-tetramethyl-4H-1,4a-propano-2H-phenanthro[1,2-c]pyran-7-carboxylic acid], for which the IC50 is 10.7 nM.

With `CC(C)[C@@H](C)[C@@]1(C)CC[C@]2(C)[C@H]3CC[C@@H]4[C@@]5(COC[C@@]4(C)[C@@H](OC[C@](C)(C(C)C)N4CCCCC4)[C@H](n4nnc(N)n4)C5)C3=CC[C@@]2(C)[C@@H]1C(=O)O` [Example 11, (1S,4aR,6aS,7R,8R,10aR,10bR,12aR,14R,15R)-14-(5-amino-2H-tetrazol-2-yl)-15-[[(2S)-2,3-dimethyl-2-(1-piperidinyl)butyl]oxy]-8-[(1R)-1,2-dimethylpropyl]-1,6,6a,7,8,9,10,10a,10b,11,12,12a-dodecahydro-1,6a,8,10a-tetramethyl-4H-1,4a-propano-2H-phenanthro[1,2-c]pyran-7-carboxylic acid], the IC50 is 78.8 nM.

Consider `CCC[C@H](CO[C@H]1[C@H](n2nnc(N)n2)C[C@@]23COC[C@]1(C)[C@@H]2CC[C@H]1C3=CC[C@@]2(C)[C@H](C(=O)O)[C@@](C)([C@H](C)C(C)C)CC[C@]12C)N(C)C` [Example 77, (1S,4aR,6aS,7R,8R,10aR,10bR,12aR,14R,15R)-14-(5-amino-2H-tetrazol-2-yl)-15-[[(2R)-2-(dimethylamino)pentyl]oxy]-8-[(1R)-1,2-dimethylpropyl]-1,6,6a,7,8,9,10,10a,10b,11,12,12a-dodecahydro-1,6a,8,10a-tetramethyl-4H-1,4a-propano-2H-phenanthro[1,2-c]pyran-7-carboxylic acid], for which the IC50 was 20.9 nM.

Regarding `CCCN(C)[C@](C)(CO[C@H]1[C@H](n2nnc(N)n2)C[C@@]23COC[C@]1(C)[C@@H]2CC[C@H]1C3=CC[C@@]2(C)[C@H](C(=O)O)[C@@](C)([C@H](C)C(C)C)CC[C@]12C)C(C)C` [Example 69, (1S,4aR,6aS,7R,8R,10aR,10bR,12aR,14R,15R)-14-(5-amino-2H-tetrazol-2-yl)-15-[[(2S)-2,3-dimethyl-2-(methylpropylamino)butyl]oxy]-8-[(1R)-1,2-dimethylpropyl]-1,6,6a,7,8,9,10,10a,10b,11,12,12a-dodecahydro-1,6a,8,10a-tetramethyl-4H-1,4a-propano-2H-phenanthro[1,2-c]pyran-7-carboxylic acid], the IC50 was 28.1 nM.

Consider `CC(C)[C@@H](C)[C@@]1(C)CC[C@]2(C)[C@H]3CC[C@@H]4[C@@]5(COC[C@@]4(C)[C@@H](OC[C@H](N)c4ccccc4)[C@H](n4nnc(N)n4)C5)C3=CC[C@@]2(C)[C@@H]1C(=O)O` [Example 88, (1S,4aR,6aS,7R,8R,10aR,10bR,12aR,14R,15R)-14-(5-amino-2H-tetrazol-2-yl)-15-[(2R)-2-amino-2-phenylethoxy]-8-[(1R)-1,2-dimethylpropyl]-1,6,6a,7,8,9,10,10a,10b,11,12,12a-dodecahydro-1,6a,8,10a-tetramethyl-4H-1,4a-propano-2H-phenanthro[1,2-c]pyran-7-carboxylic acid], for which the IC50 was 26.7 nM.
